Measurements taken from patent US20190153409A1, “COMPOSITIONS COMPRISING PARTICLES AND METHODS FOR TREATING CANCER” (priority 2017, published 2019).

Tests used:
HCT116 cells [1] = tested on: HCT116 cells
p53 = p53 transcription activity: GFP reporter in HCT116 cells transfected with RGC-mazE-IRES-GFP plasmid; assay type: cell-based, human
Protocol: In order to test the ability of p53 to bind to its responsive element and stimulate transcription, HCT116 cells were transfected with RGC-mazE-IRES-GFP plasmid. Since p53 is degraded in un-activated cells, the present inventors used Quercetin, a ubiquitous bioactive plant flavonoid that is able to induce p53 phosphorylation, stabilization and total p53 protein accumulation. Another widely used p53 inducer is the antimetabolite agent 5-FU. P53 transcription activity was evaluated by measuring the expression of the downstream reporter gene, GFP.

HCT116 cells [2] = assay: Cell toxicity in transfected HCT116 cells
[3] = molecular target: mCherry-MazF (E. coli MazF ribonuclease fused to the C terminus of the monomeric red fluorescence protein mCherry) (E. coli) (UniProt P0AE70); assay: cell-based or functional assay
mCherry-MazF (E. coli MazF ribonuclease fused to the C terminus of the monomeric red fluorescence protein mCherry) (E. coli), sequence (P0AE70 whole entry, the tested form may be a part): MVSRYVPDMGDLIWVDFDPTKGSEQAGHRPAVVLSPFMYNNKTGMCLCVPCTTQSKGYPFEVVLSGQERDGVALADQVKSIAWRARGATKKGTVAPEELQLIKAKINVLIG

Compound: O=c1[nH]cc(F)c(=O)[nH]1 [5-FU]
- cell toxicity (HCT116 cells [1]): no toxicity
- GFP expression levels (p53; 10 μM, compared with Quercetin): significantly higher expression levels of GFP

Compound: O=c1c(O)c(-c2ccc(O)c(O)c2)oc2cc(O)cc(O)c12 [Quercetin]
- cell death (cell toxicity) (HCT116 cells [2]): 60%
- increase of GFP expression (p53; 50 μM): about 10 folds

Compound: E. coli antitoxin MazE (from UniProt P0AE72 1-82)
- yield of mCherry-MazF adenovirus in HEK293 packaging cells that constitutively express MazE, against parental HEK293 cells (orders of magnitude) [3]: 2
